{"source": "ChEMBL document CHEMBL1201862", "about": "“PubChem BioAssay data set” (2004)", "molecular_target": "T1, Exodeoxyribonuclease V (Escherichia coli (strain K12), UniProt P04993+P07648+P08394)", "T1 sequence (P04993 whole entry)": "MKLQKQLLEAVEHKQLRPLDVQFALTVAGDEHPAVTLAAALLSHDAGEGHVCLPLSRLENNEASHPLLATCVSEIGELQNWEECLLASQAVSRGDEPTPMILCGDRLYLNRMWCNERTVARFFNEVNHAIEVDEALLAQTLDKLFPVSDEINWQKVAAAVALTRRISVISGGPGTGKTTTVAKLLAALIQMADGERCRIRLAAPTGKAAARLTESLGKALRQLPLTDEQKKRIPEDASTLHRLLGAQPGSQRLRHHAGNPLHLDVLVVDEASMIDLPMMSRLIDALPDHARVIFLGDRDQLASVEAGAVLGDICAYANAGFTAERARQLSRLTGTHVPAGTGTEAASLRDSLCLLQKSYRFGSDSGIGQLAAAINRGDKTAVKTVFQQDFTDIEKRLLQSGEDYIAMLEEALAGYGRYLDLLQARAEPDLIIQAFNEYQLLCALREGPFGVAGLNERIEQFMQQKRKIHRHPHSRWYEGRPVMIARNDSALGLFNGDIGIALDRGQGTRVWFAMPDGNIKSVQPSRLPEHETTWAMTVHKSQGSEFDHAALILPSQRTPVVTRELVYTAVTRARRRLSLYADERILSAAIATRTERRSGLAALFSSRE", "T1 sequence (P07648 whole entry)": "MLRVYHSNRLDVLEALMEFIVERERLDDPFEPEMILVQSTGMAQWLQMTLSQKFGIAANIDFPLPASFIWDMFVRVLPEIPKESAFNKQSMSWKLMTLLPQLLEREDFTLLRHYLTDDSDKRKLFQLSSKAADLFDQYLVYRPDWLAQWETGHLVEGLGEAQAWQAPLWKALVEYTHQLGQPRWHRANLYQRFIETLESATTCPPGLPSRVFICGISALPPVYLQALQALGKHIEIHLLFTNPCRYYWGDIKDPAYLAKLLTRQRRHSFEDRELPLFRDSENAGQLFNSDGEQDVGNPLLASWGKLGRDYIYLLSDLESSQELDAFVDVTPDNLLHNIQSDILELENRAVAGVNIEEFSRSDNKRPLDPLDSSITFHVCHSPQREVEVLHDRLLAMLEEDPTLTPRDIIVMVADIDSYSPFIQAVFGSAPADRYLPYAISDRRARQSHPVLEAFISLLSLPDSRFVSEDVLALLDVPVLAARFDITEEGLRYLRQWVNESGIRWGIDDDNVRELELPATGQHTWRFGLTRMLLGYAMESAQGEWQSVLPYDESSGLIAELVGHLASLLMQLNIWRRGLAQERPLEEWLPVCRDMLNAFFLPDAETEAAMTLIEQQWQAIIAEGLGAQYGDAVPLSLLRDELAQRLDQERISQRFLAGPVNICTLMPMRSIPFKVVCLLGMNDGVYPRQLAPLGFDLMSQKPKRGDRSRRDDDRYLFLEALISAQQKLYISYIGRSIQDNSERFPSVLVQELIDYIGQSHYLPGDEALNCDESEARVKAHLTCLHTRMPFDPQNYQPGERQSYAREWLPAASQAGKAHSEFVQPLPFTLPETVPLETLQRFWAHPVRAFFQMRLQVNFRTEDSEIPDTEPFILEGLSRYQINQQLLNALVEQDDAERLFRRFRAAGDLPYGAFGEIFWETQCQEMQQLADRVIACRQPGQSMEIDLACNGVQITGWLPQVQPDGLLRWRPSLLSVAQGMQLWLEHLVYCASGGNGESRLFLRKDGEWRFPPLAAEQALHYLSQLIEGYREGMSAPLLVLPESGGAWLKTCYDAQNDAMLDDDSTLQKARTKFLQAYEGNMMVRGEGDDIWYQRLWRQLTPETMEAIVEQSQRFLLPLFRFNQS", "T1 sequence (P08394 whole entry)": "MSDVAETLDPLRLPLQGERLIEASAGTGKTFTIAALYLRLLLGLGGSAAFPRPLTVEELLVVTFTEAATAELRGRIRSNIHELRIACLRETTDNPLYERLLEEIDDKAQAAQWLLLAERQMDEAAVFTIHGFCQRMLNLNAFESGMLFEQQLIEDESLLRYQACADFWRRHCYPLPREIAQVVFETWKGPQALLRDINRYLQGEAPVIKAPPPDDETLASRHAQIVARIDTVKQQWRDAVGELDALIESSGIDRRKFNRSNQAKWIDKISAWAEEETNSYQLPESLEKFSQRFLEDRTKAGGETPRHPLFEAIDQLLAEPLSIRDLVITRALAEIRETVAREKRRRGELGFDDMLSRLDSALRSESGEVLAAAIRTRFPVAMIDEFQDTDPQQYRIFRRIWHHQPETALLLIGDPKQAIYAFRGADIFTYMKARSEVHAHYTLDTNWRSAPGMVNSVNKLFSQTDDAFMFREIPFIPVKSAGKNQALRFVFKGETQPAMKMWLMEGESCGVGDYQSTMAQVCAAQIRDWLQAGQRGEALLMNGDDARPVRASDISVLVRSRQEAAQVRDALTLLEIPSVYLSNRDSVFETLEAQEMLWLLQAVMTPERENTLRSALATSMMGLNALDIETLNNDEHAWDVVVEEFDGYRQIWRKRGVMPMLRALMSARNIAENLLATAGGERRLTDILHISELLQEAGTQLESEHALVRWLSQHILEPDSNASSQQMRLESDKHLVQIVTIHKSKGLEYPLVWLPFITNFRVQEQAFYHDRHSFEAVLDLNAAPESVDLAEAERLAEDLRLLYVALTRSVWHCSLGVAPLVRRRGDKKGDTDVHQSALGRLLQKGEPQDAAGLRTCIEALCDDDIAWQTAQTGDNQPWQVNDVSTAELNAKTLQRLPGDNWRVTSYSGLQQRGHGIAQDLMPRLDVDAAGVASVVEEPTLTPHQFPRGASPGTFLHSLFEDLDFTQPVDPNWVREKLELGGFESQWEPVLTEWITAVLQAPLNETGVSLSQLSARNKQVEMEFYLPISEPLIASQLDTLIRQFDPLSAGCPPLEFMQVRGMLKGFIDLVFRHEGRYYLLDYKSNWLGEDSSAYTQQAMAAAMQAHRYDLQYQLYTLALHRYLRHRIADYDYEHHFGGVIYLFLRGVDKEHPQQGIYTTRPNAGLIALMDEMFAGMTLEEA", "experiment": "RecBCD inhibition via phage-restricted bacterial growth – absorbance, V66 E. coli, mutant T4 phage, counter-screen for AddAB inhibitor project, dose response (AID 492957)", "assay_type": "functional, cell-based, Escherichia coli str. K-12 substr. MG1655", "note": "Calls of active or inactive are those of the source. The rule behind the calls is not given here.", "data": [{"smiles": "COCC/N=c1\\scc(-c2cccs2)n1/N=C/c1ccc(O)c(O)c1O", "values": [{"measurement": "IC50", "value": "> 119 µM (inactive)"}]}]}
